From ChEMBL document CHEMBL1147207 (Eur J Med Chem, 2007)
Activity calls are given as the source filed them. The calls are words filed in the database; no cut-off is given here. Bridge positions count the residues as written; N and C are the ends. Square brackets hold non-standard residues; d marks the D form. Peptide text beside a SMILES is read from it. Orn = NCCC[C@H](N)C(=O)O; Aib = CC(C)(N)C(=O)O; Mpa = O=C(O)CCS

What was measured:
Oxytocin receptor [1] = target: T1, Oxytocin receptor (Rattus norvegicus, UniProt P70536); assay: Antagonist activity in rat uterus by uterotonic assay; type: functional, tissue-based; details: read-out: pA2 (converted)
T1 sequence (P70536 whole entry): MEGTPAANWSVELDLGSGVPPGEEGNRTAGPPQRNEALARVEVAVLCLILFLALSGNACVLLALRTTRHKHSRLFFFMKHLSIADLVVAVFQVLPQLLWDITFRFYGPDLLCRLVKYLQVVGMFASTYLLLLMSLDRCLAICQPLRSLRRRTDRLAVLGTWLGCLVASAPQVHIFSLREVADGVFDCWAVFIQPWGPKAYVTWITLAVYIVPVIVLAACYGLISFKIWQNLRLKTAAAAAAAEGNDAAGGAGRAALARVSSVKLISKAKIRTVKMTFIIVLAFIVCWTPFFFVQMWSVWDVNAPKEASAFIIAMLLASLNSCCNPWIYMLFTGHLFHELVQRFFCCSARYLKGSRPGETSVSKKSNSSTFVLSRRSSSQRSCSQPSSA

Oxytocin receptor [2] = target: T2, Oxytocin receptor (Homo sapiens, UniProt P30559); assay: Displacement of [3H]OT from human OT receptor expressed in HEK cells; type: cell-based, HEK293
T2 sequence (P30559 whole entry): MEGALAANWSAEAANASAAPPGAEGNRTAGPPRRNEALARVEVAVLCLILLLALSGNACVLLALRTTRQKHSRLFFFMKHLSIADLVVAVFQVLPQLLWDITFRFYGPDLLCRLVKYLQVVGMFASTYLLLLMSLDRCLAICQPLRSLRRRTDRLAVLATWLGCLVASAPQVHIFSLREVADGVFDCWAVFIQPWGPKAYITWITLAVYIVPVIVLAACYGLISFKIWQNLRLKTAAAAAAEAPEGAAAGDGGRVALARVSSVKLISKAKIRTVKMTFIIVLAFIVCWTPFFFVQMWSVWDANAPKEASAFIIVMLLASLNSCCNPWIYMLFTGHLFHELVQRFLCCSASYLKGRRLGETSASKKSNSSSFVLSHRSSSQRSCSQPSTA

[3] = target: T3, Oxytocin receptor (Rattus norvegicus) (UniProt P70536); assay: Agonist activity in rat uterus by uterotonic assay; type: functional, tissue-based
T3 sequence (whole entry): T1 sequence (P70536 whole entry)

[4] = target: Vasopressin V1a receptor (Rattus norvegicus) (UniProt P30560); assay: Agonist activity in phenoxybenzamine-treated rat up to 0.16 mg/kg by Pressor assay
[5] = target: Vasopressin V1a receptor (Rattus norvegicus) (UniProt P30560); assay: Antagonist activity in phenoxybenzamine-treated rat by Pressor assay; details: read-out: pA2 (converted)

Sequence of Vasopressin V1a receptor (Rattus norvegicus) (P30560 whole entry, looked up): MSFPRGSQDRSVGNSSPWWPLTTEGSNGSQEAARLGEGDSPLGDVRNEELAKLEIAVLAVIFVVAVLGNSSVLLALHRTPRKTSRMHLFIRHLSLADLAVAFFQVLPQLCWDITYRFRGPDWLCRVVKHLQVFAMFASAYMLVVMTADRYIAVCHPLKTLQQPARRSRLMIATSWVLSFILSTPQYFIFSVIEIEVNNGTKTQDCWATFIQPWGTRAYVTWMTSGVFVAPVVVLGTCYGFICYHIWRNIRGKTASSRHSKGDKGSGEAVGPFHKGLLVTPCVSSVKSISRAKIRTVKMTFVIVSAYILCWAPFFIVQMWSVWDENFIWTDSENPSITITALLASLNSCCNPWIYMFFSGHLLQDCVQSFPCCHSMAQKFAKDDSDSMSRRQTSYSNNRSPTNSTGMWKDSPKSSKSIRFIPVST

| Kb (Oxytocin receptor [1]) [nM] | IC50 (Oxytocin receptor [2]) [nM] | Activity [3] [IU/mg] | Activity [4] | Kb [5] [nM] | SMILES |
| --- | --- | --- | --- | --- | --- |
| 741 | 51700 | – | – | – | CC(C)C[C@H](NC(=O)[C@@H](NC(=O)[C@@H]1CSSC[C@H](N)C(=O)N[C@@H](Cc2ccc(O)cc2)C(=O)N[C@@H](C(C)(C)C)C(=O)N[C@@H](CCC(N)=O)C(=O)N[C@@H](CC(N)=O)C(=O)N1)C(C)(C)C)C(=O)NCC(N)=O |
| 8.51 | 25 | 0 | inactive | – | CCOc1ccc(CC2NC(=O)CCSSC[C@@H](C(=O)N3Cc4ccccc4C[C@@H]3C(=O)N[C@@H](CC(C)C)C(=O)N3Cc4ccccc4C[C@@H]3C(N)=O)NC(=O)[C@H](CC(N)=O)NC(=O)[C@H](CCC(N)=O)NC(=O)[C@H]([C@@H](C)CC)NC2=O)cc1 (stereo in doubt) |
| 10 | 380 | 1 | inactive | – | CC[C@H](C)[C@@H]1NC(=O)[C@H](Cc2ccc(O)cc2)NC(=O)CCSSC[C@@H](C(=O)N2Cc3ccccc3C[C@@H]2C(=O)N[C@@H](CC(C)C)C(=O)NCC(N)=O)NC(=O)[C@H](CC(N)=O)NC(=O)[C@H](CCC(N)=O)NC1=O |
| – | 7 | 79.8 | inactive | – | CC[C@H](C)[C@@H]1NC(=O)[C@H](Cc2ccc(O)cc2)NC(=O)[C@@H](N)CSSC[C@@H](C(=O)N2CCCC[C@H]2C(=O)N[C@@H](CC(C)C)C(=O)NCC(N)=O)NC(=O)[C@H](CC(N)=O)NC(=O)[C@H](CCC(N)=O)NC1=O |
| 2510 | 130 | 2 | inactive | > 1000 | CC[C@H](C)[C@@H]1NC(=O)[C@H](Cc2ccc(O)cc2)NC(=O)[C@@H](N)CSSC[C@@H](C(=O)N2Cc3ccccc3C[C@H]2C(=O)N[C@@H](CC(C)C)C(=O)NCC(N)=O)NC(=O)[C@H](CC(N)=O)NC(=O)[C@H](CCC(N)=O)NC1=O |
| 11.7 | 1000 | 0 | inactive | – | CCOc1ccc(CC2NC(=O)CCSSC[C@@H](C(=O)N[C@H](C(=O)N[C@@H](CC(C)C)C(=O)NCC(N)=O)C(C)(C)C)NC(=O)[C@H](CC(N)=O)NC(=O)[C@H](CCC(N)=O)NC(=O)[C@H]([C@@H](C)CC)NC2=O)cc1 (stereo in doubt) |
| 12.6 | 40 | 0 | inactive | – | CCOc1ccc(CC2NC(=O)CCSSC[C@@H](C(=O)N3CCCC[C@H]3C(=O)N[C@@H](CC(C)C)C(=O)NCC(N)=O)NC(=O)[C@H](CC(N)=O)NC(=O)[C@H](CCC(N)=O)NC(=O)[C@H]([C@@H](C)CC)NC2=O)cc1 (stereo in doubt) |
| 43.7 | – | 0 | – | – | CCOc1ccc(C[C@H]2NC(=O)[C@@H](N)CSSC[C@@H](C(=O)N3CCC[C@H]3C(=O)N[C@@H](CC(C)C)C(=O)NCC(N)=O)NC(=O)[C@H](CC(N)=O)NC(=O)[C@H](CCC(N)=O)NC(=O)[C@H]([C@@H](C)CC)NC2=O)cc1 |
| – | – | 803 | – | – | CC[C@H](C)[C@@H]1NC(=O)[C@H](Cc2ccc(O)cc2)NC(=O)CCSSC[C@H](C(=O)N2CCC[C@H]2C(=O)N[C@@H](CC(C)C)C(=O)NCC(N)=O)NC(=O)[C@H](CC(N)=O)NC(=O)[C@H](CCC(N)=O)NC1=O |
| – | – | 0 | inactive | – | CC(C)C[C@H](NC(=O)[C@H](NC(=O)[C@@H]1CSSC[C@H](N)C(=O)N[C@@H](Cc2ccc(O)cc2)C(=O)N[C@@H](C(C)(C)C)C(=O)N[C@@H](CCC(N)=O)C(=O)N[C@@H](CC(N)=O)C(=O)N1)C(C)(C)C)C(=O)NCC(N)=O |
| – | – | 0 | inactive | – | CCOc1ccc(CC2NC(=O)CCSSC[C@@H](C(=O)NC(C)(C)C(=O)N[C@@H](CC(C)C)C(=O)N3CCCC[C@@H]3C(N)=O)NC(=O)[C@H](CC(N)=O)NC(=O)[C@H](CCC(N)=O)NC(=O)[C@H]([C@@H](C)CC)NC2=O)cc1 (stereo in doubt) |
| 15.8 | 176 | 0 | inactive | > 1000 | CCOc1ccc(CC2NC(=O)CCSSC[C@@H](C(=O)N3Cc4ccccc4C[C@H]3C(=O)N[C@@H](CC(C)C)C(=O)NCC(N)=O)NC(=O)[C@H](CC(N)=O)NC(=O)[C@H](CCC(N)=O)NC(=O)[C@H]([C@@H](C)CC)NC2=O)cc1 (stereo in doubt) |
| 13.5 | 55 | – | – | – | CCOc1ccc(C[C@H]2NC(=O)CCSSC[C@@H](C(=O)NC(C)(C)C(=O)N[C@@H](CC(C)C)C(=O)N3Cc4ccccc4C[C@@H]3C(N)=O)NC(=O)[C@H](CC(N)=O)NC(=O)[C@H](CCC(N)=O)NC(=O)[C@H]([C@@H](C)CC)NC2=O)cc1 |
| 5.13 | – | 0 | – | – | CCOc1ccc(C[C@H]2NC(=O)CCSSC[C@@H](C(=O)N3CCC[C@H]3C(=O)N[C@@H](CCCN)C(=O)NCC(N)=O)NC(=O)[C@H](CC(N)=O)NC(=O)[C@H]([C@@H](C)O)NC(=O)[C@H]([C@@H](C)CC)NC2=O)cc1 [ATOSIBAN] ([Mpa][dY](Et)ITNCP[Orn]G-NH2; disulfide 1-6) |
| – | – | 1.8 | inactive | – | CC[C@H](C)[C@@H]1NC(=O)[C@H](Cc2ccc(O)cc2)NC(=O)[C@@H](N)CSSC[C@@H](C(=O)N[C@@H](C(=O)N[C@@H](CC(C)C)C(=O)NCC(N)=O)C(C)(C)C)NC(=O)[C@H](CC(N)=O)NC(=O)[C@H](CCC(N)=O)NC1=O |
| 17.8 | 485 | 0 | inactive | – | CCOc1ccc(CC2NC(=O)CCSSC[C@@H](C(=O)NC(C)(C)C(=O)N[C@@H](CC(C)C)C(=O)NCC(N)=O)NC(=O)[C@H](CC(N)=O)NC(=O)[C@H](CCC(N)=O)NC(=O)[C@H]([C@@H](C)CC)NC2=O)cc1 (stereo in doubt) |
| 123 | 8500 | 0 | inactive | – | CC[C@H](C)[C@@H]1NC(=O)[C@H]2Cc3ccccc3CN2C(=O)CCSSC[C@@H](C(=O)NC(C)(C)C(=O)N[C@@H](CC(C)C)C(=O)NCC(N)=O)NC(=O)[C@H](CC(N)=O)NC(=O)[C@H](CCC(N)=O)NC1=O |
| – | – | 546 | – | – | CC[C@H](C)[C@@H]1NC(=O)[C@H](Cc2ccc(O)cc2)NC(=O)[C@@H](N)CSSC[C@@H](C(=O)N2CCC[C@H]2C(=O)N[C@@H](CC(C)C)C(=O)NCC(N)=O)NC(=O)[C@H](CC(N)=O)NC(=O)[C@H](CCC(N)=O)NC1=O |
| 355 | 7850 | 0 | inactive | – | CCOc1ccc(CC2NC(=O)CCSSC[C@@H](C(=O)N[C@H](C(=O)N[C@@H](CC(C)C)C(=O)NCC(N)=O)C(C)(C)C)NC(=O)[C@H](CC(N)=O)NC(=O)[C@H](CCC(N)=O)NC(=O)[C@H](C(C)(C)C)NC2=O)cc1 (stereo in doubt) |
| – | 75 | 1.7 | inactive | – | CC[C@H](C)[C@@H]1NC(=O)[C@H](Cc2ccc(O)cc2)NC(=O)[C@@H](N)CSSC[C@@H](C(=O)NC(C)(C)C(=O)N[C@@H](CC(C)C)C(=O)NCC(N)=O)NC(=O)[C@H](CC(N)=O)NC(=O)[C@H](CCC(N)=O)NC1=O (H-CYIQNC[Aib]LG-NH2; disulfide 1-6) |
| – | 1380 | – | – | – | CC[C@H](C)[C@@H]1NC(=O)[C@H](Cc2ccc(O)cc2)NC(=O)[C@@H](N)CSSC[C@@H](C(=O)N[C@H](C(=O)N[C@@H](CC(C)C)C(=O)NCC(N)=O)C(C)(C)C)NC(=O)[C@H](CC(N)=O)NC(=O)[C@H](CCC(N)=O)NC1=O |
| – | – | – | – | 151 | CCc1ccc(C[C@H]2NC(=O)CCSSC[C@@H](C(=O)N3CCC[C@H]3C(=O)N[C@@H](CC(C)C)C(=O)NCC(N)=O)NC(=O)[C@H](CC(N)=O)NC(=O)[C@H](CCC(N)=O)NC(=O)[C@H]([C@@H](C)CC)NC2=O)cc1 |
| 5.01 | – | 0 | inactive | 316 | CCc1ccc(C[C@H]2NC(=O)CCSSC[C@@H](C(=O)NC(C)(C)C(=O)N[C@@H](CC(C)C)C(=O)NCC(N)=O)NC(=O)[C@H](CC(N)=O)NC(=O)[C@H](CCC(N)=O)NC(=O)[C@H]([C@@H](C)CC)NC2=O)cc1 |
| 39.8 | – | 0 | inactive | – | CCc1ccc(C[C@@H]2NC(=O)CCSSC[C@@H](C(=O)NC(C)(C)C(=O)N[C@@H](CC(C)C)C(=O)NCC(N)=O)NC(=O)[C@H](CC(N)=O)NC(=O)[C@H](CCC(N)=O)NC(=O)[C@H]([C@@H](C)CC)NC2=O)cc1 |
| 4.9 | 80 | 0 | inactive | – | CCOc1ccc(CC2NC(=O)CCSSC[C@@H](C(=O)N3Cc4ccccc4C[C@@H]3C(=O)N[C@@H](CC(C)C)C(=O)NC(C)(C)C(N)=O)NC(=O)[C@H](CC(N)=O)NC(=O)[C@H](CCC(N)=O)NC(=O)[C@H]([C@@H](C)CC)NC2=O)cc1 (stereo in doubt) |
